Some test systems named below: BT-549 breast; COLO 205 colon; EKVX NSCLC; HCC-2998 colon; HCT-116 colon; IGROV1 ovarian; K-562 leukemia; MDA-N; MOLT-4 leukemia; NCI-H23 lung; NCI-H460 lung; NCI-H522 lung; NCI/ADR-RES ovarian; OVCAR-5 ovarian; PC-3 prostate; RPMI-8226 leukemia; SK-MEL-2 melanoma; SK-OV-3 ovarian; SW-620 colon.
Common to all, as to test: NCI tumour cell line growth inhibition, 48 h

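Values below derive from 48-hour exposures of cells grown in 96-well plates, with endpoints linearly interpolated between the two concentrations bracketing the appropriate inhibition level. Definition used: TGI = concentration required for complete inhibition of growth.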 Where only a bound is given, the exact number is not on record here.

Take `CCCCCCCCCCCCCCCCOCC(CC(F)(F)P(=O)(OCC)OCC)OC(C)=O` (centres undefined): the TGI in the test with BT-549 breast is 28.8 µM; in the test with COLO 205 colon, 32.5 µM; in the test on EKVX NSCLC, 44.9 µM; in the test with HCC-2998 colon, 22.6 µM; with HCT-116 colon, 17 µM; in the test on IGROV1 ovarian, 21.8 µM. Besides, the TGI is 48.9 µM in the test with K-562 leukemia; 31.6 µM in the test with MDA-N; more than 100 µM with MOLT-4 leukemia; 34.6 µM with NCI-H23 lung; 26.3 µM in the test on NCI-H460 lung; 31.2 µM with NCI-H522 lung. Moreover, the TGI was 32.4 µM in the test on NCI/ADR-RES ovarian; 34.7 µM in the test with OVCAR-5 ovarian; 26.7 µM in the test on PC-3 prostate; more than 100 µM with RPMI-8226 leukemia; 35.9 µM in the test with SK-MEL-2 melanoma; 35 µM with SK-OV-3 ovarian. This molecule also had a TGI in the test with SW-620 colon of 29.7 µM.
As to `C/C=C\C(CC(=O)NCCC1CN(S(=O)(=O)c2ccc(C)cc2)c2ccccc21)CC(=O)OC` (centres undefined), the TGI with BT-549 breast, with COLO 205 colon, in the test with EKVX NSCLC, in the test on HCC-2998 colon, in the test on HCT-116 colon and in the test with IGROV1 ovarian was more than 100 µM throughout. Moreover, the TGI in the test on K-562 leukemia, in the test on MDA-N, in the test on MOLT-4 leukemia, with NCI-H23 lung, with NCI-H460 lung and in the test on NCI-H522 lung was more than 100 µM each time. Further, the TGI in the test on NCI/ADR-RES ovarian, with OVCAR-5 ovarian, in the test on PC-3 prostate, with RPMI-8226 leukemia, in the test on SK-MEL-2 melanoma and in the test with SK-OV-3 ovarian was more than 100 µM throughout. In addition, in the test on SW-620 colon, the TGI was more than 100 µM.
For `O=c1ccn([C@@H]2C[C@@H]2CO)c(=O)[nH]1`, the TGI in the test with BT-549 breast, with COLO 205 colon, with EKVX NSCLC, in the test with HCC-2998 colon, with HCT-116 colon and with IGROV1 ovarian was more than 100 µM each time. Further, the TGI in the test on K-562 leukemia, with MDA-N, in the test with NCI-H23 lung, in the test on NCI-H460 lung, with NCI-H522 lung and in the test on NCI/ADR-RES ovarian was more than 100 µM in each case. For the same molecule, the TGI in the test on OVCAR-5 ovarian, with PC-3 prostate, in the test on RPMI-8226 leukemia, in the test with SK-MEL-2 melanoma and in the test with SW-620 colon was more than 100 µM each time.
For the molecule `COc1ccc(C(=O)c2sc(Nc3ccc(Cl)cc3)nc2N)cc1`, the TGI was more than 100 µM in the test on BT-549 breast; more than 100 µM in the test on COLO 205 colon; more than 100 µM with EKVX NSCLC; 44.7 µM in the test on HCC-2998 colon; more than 34.4 µM in the test with HCT-116 colon; more than 53.9 µM with IGROV1 ovarian. In addition, the TGI is more than 100 µM with K-562 leukemia; more than 22.2 µM with MDA-N; more than 71.4 µM with MOLT-4 leukemia; more than 51.6 µM in the test on NCI-H23 lung; 36.3 µM in the test with NCI-H460 lung; 33.9 µM in the test on NCI-H522 lung. The TGI in the test on NCI/ADR-RES ovarian was more than 69.5 µM; with OVCAR-5 ovarian it was more than 100 µM; in the test with PC-3 prostate it was more than 68.3 µM; in the test on RPMI-8226 leukemia it was more than 43.5 µM; with SK-MEL-2 melanoma it was more than 49.1 µM; in the test with SK-OV-3 ovarian, 27.2 µM. In the test on SW-620 colon, this molecule returned a TGI of more than 100 µM.
Consider `CC(=O)O[C@H]1[C@@H]2OC(=O)[C@@](O)(CC3CCCO3)[C@@H]2CC(=O)[C@](C)(O)CC/C=C(\C)CCC[C@@H]1C` (some centres undefined), for which the TGI was 70.4 µM in the test with BT-549 breast; 34.5 µM in the test with COLO 205 colon; more than 100 µM in the test on EKVX NSCLC; more than 100 µM in the test on HCC-2998 colon; more than 100 µM in the test on IGROV1 ovarian; 90.9 µM with K-562 leukemia. Further, the TGI is 49.4 µM with MDA-N; more than 100 µM with NCI-H460 lung; 72.4 µM in the test with NCI-H522 lung; more than 100 µM with NCI/ADR-RES ovarian; more than 100 µM with OVCAR-5 ovarian; more than 100 µM with PC-3 prostate. The TGI is more than 100 µM in the test with RPMI-8226 leukemia, more than 100 µM with SK-MEL-2 melanoma and 49.2 µM with SW-620 colon.
With `O=C1CSC(c2ccc([N+](=O)[O-])cc2)N1c1ccc(-n2c(-c3ccccc3)nc3ccccc3c2=O)cc1` (centres undefined), the TGI in the test on BT-549 breast, with COLO 205 colon, in the test with EKVX NSCLC, with HCC-2998 colon, with HCT-116 colon and in the test with IGROV1 ovarian was more than 100 µM in each case. The TGI in the test on K-562 leukemia, in the test on MDA-N, in the test on MOLT-4 leukemia, with NCI-H23 lung, in the test with NCI-H460 lung and with NCI-H522 lung was more than 100 µM each time. Moreover, the TGI in the test with NCI/ADR-RES ovarian, in the test on PC-3 prostate, in the test on RPMI-8226 leukemia, in the test with SK-MEL-2 melanoma, in the test with SK-OV-3 ovarian and with SW-620 colon was more than 100 µM in each case.
Consider `COc1cc(OC)nc(-n2c(N)c(C#N)c3ccc([N+](=O)[O-])cc3c2=O)n1`, for which the TGI with BT-549 breast, in the test with COLO 205 colon, in the test on EKVX NSCLC, in the test on HCC-2998 colon, in the test on HCT-116 colon and with IGROV1 ovarian was more than 100 µM in each case. The TGI is more than 100 µM in the test with MDA-N; more than 100 µM in the test on MOLT-4 leukemia; more than 100 µM with NCI-H23 lung; more than 100 µM in the test on NCI-H460 lung; 55.4 µM in the test with NCI-H522 lung; more than 100 µM in the test on NCI/ADR-RES ovarian. Further, the TGI with OVCAR-5 ovarian, in the test with PC-3 prostate, in the test with RPMI-8226 leukemia, in the test on SK-MEL-2 melanoma and in the test on SW-620 colon was more than 100 µM each time.
